Data published in ChEMBL document CHEMBL1142248, “Structure-activity relationships and pharmacokinetic parameters of quinoline acylsulfonamides as potent and selective antagonists of the EP(4) receptor” (Bioorg Med Chem Lett, 2008).

What was measured:
[1] = molecular target: Prostaglandin F2-alpha receptor (Homo sapiens, UniProt P43088); test: Binding affinity to human FP receptor expressed in HEK293 cells; type: cell-based
Thromboxane A2 receptor = molecular target: T1, Thromboxane A2 receptor (Homo sapiens, UniProt P21731); test: Binding affinity to human TP receptor expressed in HEK293 cells; type: cell-based
T1 sequence (P21731 whole entry): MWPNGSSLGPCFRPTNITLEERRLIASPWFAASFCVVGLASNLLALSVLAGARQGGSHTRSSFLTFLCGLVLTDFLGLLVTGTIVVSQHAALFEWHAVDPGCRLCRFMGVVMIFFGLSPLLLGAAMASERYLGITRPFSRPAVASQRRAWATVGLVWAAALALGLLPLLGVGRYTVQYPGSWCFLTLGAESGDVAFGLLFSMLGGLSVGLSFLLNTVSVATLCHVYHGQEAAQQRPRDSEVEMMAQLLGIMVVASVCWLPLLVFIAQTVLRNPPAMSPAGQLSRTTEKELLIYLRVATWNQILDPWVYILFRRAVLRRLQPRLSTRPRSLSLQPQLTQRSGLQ

Rattus norvegicus = species: Rattus norvegicus; test: Antiinflammatory activity against adjuvant-induced rat arthritis model; type: functional
Prostacyclin receptor = Prostacyclin receptor (Homo sapiens, UniProt P43119); test: Binding affinity to human IP receptor expressed in HEK293 cells; type: cell-based
[2] = molecular target: T2, Prostaglandin E2 receptor EP3 subtype (Homo sapiens, UniProt P43115); test: Binding affinity to human EP3 receptor expressed in HEK293 cells; type: cell-based
T2 sequence (P43115 whole entry): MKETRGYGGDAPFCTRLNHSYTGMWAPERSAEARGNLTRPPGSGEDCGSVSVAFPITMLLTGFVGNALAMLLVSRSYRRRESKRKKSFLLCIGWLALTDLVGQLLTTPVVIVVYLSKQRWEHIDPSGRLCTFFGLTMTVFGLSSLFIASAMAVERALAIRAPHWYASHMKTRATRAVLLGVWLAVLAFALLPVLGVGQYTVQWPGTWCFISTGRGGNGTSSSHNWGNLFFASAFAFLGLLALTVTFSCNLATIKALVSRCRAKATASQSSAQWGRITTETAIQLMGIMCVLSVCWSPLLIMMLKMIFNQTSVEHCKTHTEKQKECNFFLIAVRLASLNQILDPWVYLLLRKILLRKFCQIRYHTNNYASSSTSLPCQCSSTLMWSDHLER

[3] = molecular target: T3, Prostaglandin E2 receptor EP4 subtype (Homo sapiens, UniProt P35408); test: Binding affinity to human EP4 receptor expressed in HEK293 cells in presence of 10% human serum; type: cell-based
[4] = molecular target: T4, Prostaglandin E2 receptor EP1 subtype (Homo sapiens, UniProt P34995); test: Binding affinity to human EP1 receptor expressed in HEK293 cells; type: cell-based
T4 sequence (P34995 whole entry): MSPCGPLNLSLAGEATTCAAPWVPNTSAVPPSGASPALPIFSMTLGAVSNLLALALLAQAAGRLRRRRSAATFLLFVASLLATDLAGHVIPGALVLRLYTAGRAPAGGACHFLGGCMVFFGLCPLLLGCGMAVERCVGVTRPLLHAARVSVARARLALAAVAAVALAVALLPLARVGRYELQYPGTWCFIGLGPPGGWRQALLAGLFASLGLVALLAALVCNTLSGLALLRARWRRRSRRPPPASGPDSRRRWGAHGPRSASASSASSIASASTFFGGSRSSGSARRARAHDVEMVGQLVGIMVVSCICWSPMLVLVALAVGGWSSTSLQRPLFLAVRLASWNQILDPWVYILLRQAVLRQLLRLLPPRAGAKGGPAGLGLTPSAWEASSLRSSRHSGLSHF

[5] = molecular target: Prostaglandin E2 receptor EP2 subtype (Homo sapiens, UniProt P43116); test: Binding affinity to human EP2 receptor expressed in HEK293 cells; type: cell-based
[6] = molecular target: T5, Prostaglandin D2 receptor (Homo sapiens, UniProt Q13258); test: Binding affinity to human DP receptor expressed in HEK293 cells; type: cell-based
T5 sequence (Q13258 whole entry): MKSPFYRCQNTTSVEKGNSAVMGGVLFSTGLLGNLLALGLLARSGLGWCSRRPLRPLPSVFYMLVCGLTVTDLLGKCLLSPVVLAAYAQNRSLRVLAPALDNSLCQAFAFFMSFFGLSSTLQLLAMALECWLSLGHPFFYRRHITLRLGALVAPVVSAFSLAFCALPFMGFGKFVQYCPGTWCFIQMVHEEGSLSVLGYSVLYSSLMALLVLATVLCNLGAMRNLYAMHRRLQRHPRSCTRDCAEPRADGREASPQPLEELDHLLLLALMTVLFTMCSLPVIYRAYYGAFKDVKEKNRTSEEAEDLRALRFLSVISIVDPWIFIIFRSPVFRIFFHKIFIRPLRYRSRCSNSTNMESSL

[7] = molecular target: T3, Prostaglandin E2 receptor EP4 subtype; test: Binding affinity to human EP4 receptor expressed in HEK293 cells; type: cell-based
[8] = Bioavailability in dog at 10 mg/kg, po or 2 mg/kg, iv; type: ADME, organism-based, Canis lupus familiaris; conditions: in vivo
[9] = Clearance in guinea pig at 20 mg/kg, po or 5 mg/kg, iv; type: ADME, organism-based, Cavia porcellus; conditions: in vivo
[10] = Volume of distribution at steady state in rat at 20 mg/kg, po or 5 mg/kg, iv; type: ADME, organism-based; conditions: in vivo, read-out: Vdss
[11] = Bioavailability in rat at 20 mg/kg, po or 5 mg/kg, iv; type: ADME, organism-based; conditions: in vivo
[12] = Bioavailability in guinea pig at 20 mg/kg, po or 5 mg/kg, iv; type: ADME, organism-based, Cavia porcellus; conditions: in vivo
[13] = Clearance in rat at 20 mg/kg, po or 5 mg/kg, iv; type: ADME, organism-based; conditions: in vivo
[14] = Volume of distribution at steady state in guinea pig at 20 mg/kg, po or 5 mg/kg, iv; type: ADME, organism-based, Cavia porcellus; conditions: in vivo, read-out: Vdss
[15] = Clearance in dog at 10 mg/kg, po or 2 mg/kg, iv; type: ADME, organism-based, Canis lupus familiaris; conditions: in vivo
[16] = Half life in rat at 5 mg/kg, iv; type: ADME, organism-based; parameters: dose 5 mg/kg, route intravenous; conditions: in vivo
[17] = Volume of distribution at steady state in dog at 10 mg/kg, po or 2 mg/kg, iv; type: ADME, organism-based, Canis lupus familiaris; conditions: in vivo, read-out: Vdss
[18] = Half life in dog at 2 mg/kg, iv; type: ADME, organism-based, Canis lupus familiaris; parameters: dose 2 mg/kg, route intravenous; conditions: in vivo
[19] = Half life in guinea pig at 5 mg/kg, iv; type: ADME, organism-based, Cavia porcellus; parameters: dose 5 mg/kg, route intravenous; conditions: in vivo
[20] = Volume of distribution at steady state in dog at 4 mg/kg, po or 5 mg/kg, iv; type: ADME, organism-based, Canis lupus familiaris; conditions: in vivo, read-out: Vdss
[21] = Clearance in rhesus monkey at 4 mg/kg, po or 2 mg/kg, iv; type: ADME, organism-based, Macaca mulatta; conditions: in vivo
[22] = Half life in rat at 10 mg/kg, iv; type: ADME, organism-based; parameters: dose 10 mg/kg, route intravenous; conditions: in vivo
[23] = Bioavailability in dog at 4 mg/kg, po or 5 mg/kg, iv; type: ADME, organism-based, Canis lupus familiaris; conditions: in vivo
[24] = Clearance in mouse at 100 mg/kg, po or 10 mg/kg, iv; type: ADME, organism-based; conditions: in vivo
[25] = Clearance in dog at 4 mg/kg, po or 5 mg/kg, iv; type: ADME, organism-based, Canis lupus familiaris; conditions: in vivo
[26] = Volume of distribution at steady state in rhesus monkey at 4 mg/kg, po or 2 mg/kg, iv; type: ADME, organism-based, Macaca mulatta; conditions: in vivo, read-out: Vdss
[27] = Half life in dog at 5 mg/kg, iv; type: ADME, organism-based, Canis lupus familiaris; parameters: dose 5 mg/kg, route intravenous; conditions: in vivo
[28] = Bioavailability in rhesus monkey at 4 mg/kg, po or 2 mg/kg, iv; type: ADME, organism-based, Macaca mulatta; conditions: in vivo
[29] = Metabolic stability in rhesus monkey hepatocytes at 20 uM after 2 hrs; type: ADME, cell-based, Macaca mulatta, Hepatocyte; conditions: read-out: Stability
[30] = Volume of distribution at steady state in mouse at 100 mg/kg, po or 10 mg/kg, iv; type: ADME, organism-based; conditions: in vivo, read-out: Vdss
[31] = Half life in mouse at 10 mg/kg, iv; type: ADME, organism-based; parameters: dose 10 mg/kg, route intravenous; conditions: in vivo
[32] = Half life in rhesus monkey at 2 mg/kg, iv; type: ADME, organism-based, Macaca mulatta; parameters: dose 2 mg/kg, route intravenous; conditions: in vivo
[33] = Clearance in rat at 20 mg/kg, po or 10 mg/kg, iv; type: ADME, organism-based; conditions: in vivo
[34] = Bioavailability in mouse at 100 mg/kg, po or 10 mg/kg, iv; type: ADME, organism-based; conditions: in vivo
[35] = Volume of distribution at steady state in rat at 20 mg/kg, po or 10 mg/kg, iv; type: ADME, organism-based; conditions: in vivo, read-out: Vdss
[36] = Metabolic stability in dog hepatocytes at 20 uM after 2 hrs; type: ADME, cell-based, Canis lupus familiaris, Hepatocyte; conditions: read-out: Stability
[37] = Metabolic stability in rat hepatocytes at 20 uM after 2 hrs; type: ADME, cell-based, Hepatocyte; conditions: read-out: Stability
[38] = Metabolic stability in human hepatocytes at 20 uM after 2 hrs; type: ADME, cell-based, Hepatocyte; conditions: read-out: Stability
[39] = Bioavailability in rat at 20 mg/kg, po or 10 mg/kg, iv; type: ADME, organism-based; conditions: in vivo

T3 sequence (P35408 whole entry): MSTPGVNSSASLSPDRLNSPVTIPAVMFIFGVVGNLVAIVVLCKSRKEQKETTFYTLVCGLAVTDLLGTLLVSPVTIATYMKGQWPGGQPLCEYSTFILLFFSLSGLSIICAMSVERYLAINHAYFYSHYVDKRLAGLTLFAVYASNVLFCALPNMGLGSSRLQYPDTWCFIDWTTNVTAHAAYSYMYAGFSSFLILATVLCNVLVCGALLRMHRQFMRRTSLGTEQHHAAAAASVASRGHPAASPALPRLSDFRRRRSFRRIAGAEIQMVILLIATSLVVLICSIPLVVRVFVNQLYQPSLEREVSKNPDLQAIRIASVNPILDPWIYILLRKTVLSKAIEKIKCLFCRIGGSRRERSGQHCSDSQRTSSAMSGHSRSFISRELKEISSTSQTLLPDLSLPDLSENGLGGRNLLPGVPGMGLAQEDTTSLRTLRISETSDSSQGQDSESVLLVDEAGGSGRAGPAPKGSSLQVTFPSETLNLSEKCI
Chain of Prostaglandin E2 receptor EP2 subtype (P43116 whole entry): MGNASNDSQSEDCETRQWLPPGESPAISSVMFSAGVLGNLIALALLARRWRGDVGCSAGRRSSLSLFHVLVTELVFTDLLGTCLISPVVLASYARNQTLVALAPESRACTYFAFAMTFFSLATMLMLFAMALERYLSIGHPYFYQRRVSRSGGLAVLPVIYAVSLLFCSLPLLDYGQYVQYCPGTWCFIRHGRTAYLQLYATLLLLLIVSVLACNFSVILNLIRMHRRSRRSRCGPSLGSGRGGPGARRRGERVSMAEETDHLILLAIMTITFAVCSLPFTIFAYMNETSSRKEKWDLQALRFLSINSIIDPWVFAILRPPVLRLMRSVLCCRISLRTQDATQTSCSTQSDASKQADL
Chain of Prostacyclin receptor (P43119 whole entry): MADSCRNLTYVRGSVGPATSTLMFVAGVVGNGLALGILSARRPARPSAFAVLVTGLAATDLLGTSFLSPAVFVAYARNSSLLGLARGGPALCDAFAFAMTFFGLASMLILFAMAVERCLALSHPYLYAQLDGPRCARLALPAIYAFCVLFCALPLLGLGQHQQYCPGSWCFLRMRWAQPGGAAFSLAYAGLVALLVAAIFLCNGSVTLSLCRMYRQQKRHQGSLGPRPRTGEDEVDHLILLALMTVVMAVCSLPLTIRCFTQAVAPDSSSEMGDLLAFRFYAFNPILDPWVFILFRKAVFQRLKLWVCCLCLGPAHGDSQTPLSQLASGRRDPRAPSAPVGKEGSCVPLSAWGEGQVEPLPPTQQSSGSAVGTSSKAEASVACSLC
Chain of Prostaglandin F2-alpha receptor (P43088 whole entry): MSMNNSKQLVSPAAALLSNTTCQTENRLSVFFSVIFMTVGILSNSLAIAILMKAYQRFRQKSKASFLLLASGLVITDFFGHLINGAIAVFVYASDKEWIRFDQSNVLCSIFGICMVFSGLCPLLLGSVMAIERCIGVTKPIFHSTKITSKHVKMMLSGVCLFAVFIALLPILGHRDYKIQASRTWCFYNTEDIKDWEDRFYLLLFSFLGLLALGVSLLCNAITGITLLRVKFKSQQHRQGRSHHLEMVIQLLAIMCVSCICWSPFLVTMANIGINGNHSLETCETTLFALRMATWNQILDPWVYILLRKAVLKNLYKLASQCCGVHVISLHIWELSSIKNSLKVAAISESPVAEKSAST

Compound `COc1cccc(OC)c1C1(C(=O)NS(=O)(=O)Cc2ccc(N3Cc4c(c(OCC(F)(F)F)c5cccnc5c4OCC(F)(F)F)C3=O)c(C)c2)CC1` has a Ki [1] of 340 nM, a Ki (Thromboxane A2 receptor) of 39 nM and an ED50 (Rattus norvegicus) of 5 µg/kg. The Ki (Prostacyclin receptor) was 2000 nM, the Ki [2] was 2700 nM and the Ki [3] was 1.6 nM. The Ki [4] was greater than 9000 nM, the Ki [5] was 300 nM and the Ki [6] was 53 nM. The Ki [7] was 0.79 nM.
`CCOc1c2c(c(OCC)c3ncccc13)CN(c1ccc(CS(=O)(=O)[N-]C(=O)Cc3ccccc3OC)cc1C)C2=O.[Na+]` gave a bioavailability [8] of 49%, a clearance [9] of 3.6 mL/min/kg and a Vd [10] of 1.6 L/kg. It also gave a bioavailability [11] greater than 99%, a bioavailability [12] of 18% and a clearance [13] of 7.8 mL/min/kg. For the same compound, the Vd [14] was 0.6 L/kg, the clearance [15] was 0.4 mL/min/kg and the half-life [16] was 2.7 h. The Vd [17] was 0.1 L/kg, the half-life [18] was 4.1 h and the half-life [19] was 8.6 h.
With `COc1cccc(OC)c1C1(C(=O)[N-]S(=O)(=O)Cc2ccc(N3Cc4c(c(OCC(F)(F)F)c5cccnc5c4OCC(F)(F)F)C3=O)c(C)c2)CC1.[Na+]` the Vd [20] was 0.2 L/kg, the clearance [21] was 2 mL/min/kg and the half-life [22] was 14.8 h. It also gave a bioavailability [23] of 69%, a clearance [24] of 2.6 mL/min/kg and a clearance [25] of 0.2 mL/min/kg. It also gave a Vd [26] of 0.3 L/kg, a half-life [27] of 13.2 h and a bioavailability [28] of 40%. For the same compound, the remaining at 2 h, 20 µM [29] was 39%, the Vd [30] was 0.7 L/kg and the half-life [31] was 3.5 h. The half-life [32] was 3.8 h, the clearance [33] was 0.6 mL/min/kg and the bioavailability [34] was 44%. The Vd [35] was 0.7 L/kg, the remaining at 2 h, 20 µM [36] was 20% and the remaining at 2 h, 20 µM [37] was 6%. The remaining at 2 h, 20 µM [38] was 36% and the bioavailability [39] was 73%.
With `CCOc1c2c(c(OCC)c3ncccc13)CN(c1ccc(CS(=O)(=O)NC(=O)Cc3ccccc3OC)cc1C)C2=O` the Ki [1] was 2000 nM, the Ki (Thromboxane A2 receptor) was 630 nM and the Ki (Prostacyclin receptor) was greater than 7000 nM. The Ki [2] was 4000 nM, the Ki [3] was 3.6 nM and the Ki [4] was greater than 7000 nM. It also gave a Ki [5] of 1900 nM, a Ki [6] of 1200 nM and a Ki [7] of 0.74 nM.
